This is an account of results in patent US20220289732A1, “HETEROCYCLIC WDR5 INHIBITORS AS ANTI-CANCER COMPOUNDS” (NOVARTIS AG, priority 2019, published 2022).

The target in assay [1] is wild type MLL1 four-member complex (MLL1-4C) (Homo sapiens, UniProt P61964). Description: MLL1 LC-MS assay (SAH production). Type of assay: biochemical. The settings on record: read-out: (b) MLL LCMS Peptide Val.v.1 Qualified AC50. The essentials: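 MLL1-4C (30 nM final) was preincubated 20 min with compound (3-fold dilutions, 8 or 12 points) and SAM in Tris-HCl pH 8.0 buffer. H3K4me0 peptide (histone H3[1-21]-biotin) was then added, giving final 2.5 μM SAM and 10 μM substrate, and reactions ran 120 min at rt. After TFA/d4-SAH quench, SAH was quantified by LC-MS/MS and IC50 fitted from control-normalised activity.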

Another assay relates to MV4-11 cells. Nature of the assay: MV4-11 6-day cell growth CTG (CellTiter-Glo) assay. Type of assay: cell-based. The settings on record: Homo sapiens, MV4-11, 144 h, 6 days, read-out: (c) MLL/WDR5 cell proliferation assay//MLL/WDR5 proliferation MV4:11 Qualified AC50. A digest of the protocol: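 Exponentially growing MV4-11 AML cells (RPMI 1640, 10% FBS) seeded at 300 cells/well with 12-point 1:3 compound dilutions, top final concentration 50 μM. Viability read by CellTiter-Glo luminescence after 6 days at 37° C; % inhibition vs DMSO-only wells fitted to dose-response for IC50.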

The next assay concerns the target WDR5 (Homo sapiens, UniProt P61964). Nature of the assay: WDR5 HTRF binding assay. The settings on record: read-out: (a) WDR5 HTRF Pep Val v.1[Inhibitor/IC50]Qualified AC50. A digest of the protocol:
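6 nM WDR5 and 20 nM biotin-MLL1 WIN peptide (3762-3773) were incubated with compound (12-point, 3-fold dilutions) in pH 7.5 Hepes/NaCl/DTT buffer for 20 min at rt. Streptavidin-APC plus anti-His-Eu were then added for 1 hr, with HTRF read at 665/615. IC50 was fit from control-normalized activity; the counter assay used 15 nM biotin-PEG-His peptide.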

Structures are written as SMILES. Some results are limits rather than exact numbers.

As to `CNc1nccn1Cc1cc(CN2CC(OC)C2)c2c(c1)C(=O)N([C@@H](C)c1cc(OC)c(F)cn1)CC2` [Example 31, (S)-2-(1-(5-fluoro-4-methoxypyridin-2-yl)ethyl)-5-((3-methoxyazetidin-1-yl)methyl)-7-((2-(methylamino)-1H-imidazol-1-yl)methyl)-3,4-dihydroisoquinolin-1(2H)-one], the AC50 (in assay [1]; in the assay with MV4-11 cells) was 10 to 1000 nM in each case. Further, the IC50 on WDR5 lay within 10 to 1000 nM.
Turning to `CCOc1cc(C(C)N2CCc3c(cc(CCN(C)C4COC4)cc3-c3ccc(F)nc3C)C2=O)ncc1C#N` (stereo not drawn) [Example 231], the AC50 (in assay [1]; in the assay with MV4-11 cells) was 10 to 1000 nM in each case. The IC50 on WDR5 was under 10 nM.
Turning to `CCOc1cc([C@H](C)N2CCc3c(cc(CCN(C)CCF)cc3-c3cn(C)c(=O)cc3Cl)C2=O)ncc1C#N` [Example 251], the AC50 (in assay [1]; in the assay on MV4-11 cells) was 10 to 1000 nM each time. The IC50 on WDR5 was 10 to 1000 nM.
On to `CNc1nccn1Cc1cc2c(c(-c3cc(CO)cnc3Cl)c1)CCN(Cc1ccc(F)c(C#N)c1)C2=O` [Example 69, 5-((5-(2-chloro-5-(hydroxymethyl)pyridin-3-yl)-7-((2-(methylamino)-1H-imidazol-1-yl)methyl)-1-oxo-3,4-dihydroisoquinolin-2(1H)-yl)methyl)-2-fluorobenzonitrile], for which the AC50 (in assay [1]; in the assay with MV4-11 cells) was 10 to 1000 nM each time. For the same compound, at WDR5, the IC50 is 10 to 1000 nM.
Take `CCOc1cc([C@H](C)N2CCc3c(cc(CCN(C)CC)cc3-c3cc(N)ncc3C(F)(F)F)C2=O)ncc1C#N` [Example 202, (S)-6-(1-(5-(2-amino-5-(trifluoromethyl)pyridin-4-yl)-7-(2-(ethyl(methyl)amino)ethyl)-1-oxo-3,4-dihydroisoquinolin-2(1H)-yl)ethyl)-4-ethoxynicotinonitrile]: the AC50 (in assay [1]; with MV4-11 cells) was 10 to 1000 nM each time. Besides, the IC50 at WDR5 is 10 to 1000 nM.
With `CCOc1cc(CN2CCc3c(cc(CCN(C)CC)cc3-c3cc(C)cnc3Cl)C2=O)ncc1C#N` [Example 112, 6-((5-(2-chloro-5-methylpyridin-3-yl)-7-(2-(ethyl(methyl)amino)ethyl)-1-oxo-3,4-dihydroisoquinolin-2(1H)-yl)methyl)-4-ethoxynicotinonitrile], the AC50 (in assay [1]; in the assay with MV4-11 cells) was 10 to 1000 nM in each case. The IC50 at WDR5 is under 10 nM.
With `CCN(C)CCc1cc2c(c(-c3ccc(F)nc3C)c1)CCN(Cc1cnc(F)c(OC)c1)C2=O` [Example 137, 7-(2-(ethyl(methyl)amino)ethyl)-5-(6-fluoro-2-methylpyridin-3-yl)-2-((6-fluoro-5-methoxypyridin-3-yl)methyl)-3,4-dihydroisoquinolin-1(2H)-one], the AC50 (in assay [1]; in the assay with MV4-11 cells) was 10 to 1000 nM throughout. Also, the IC50 on WDR5 was under 10 nM.
On to `CNc1nccn1Cc1cc(CN2CCC23COC3)c2c(c1)C(=O)N([C@@H](C)c1cc(OC)c(F)cn1)CC2` [Example 17, (S)-5((6-oxa-1-azaspiro+3.3+heptan-1-yl)methyl)-2-(1-(5-fluoro-4-methoxypyridin-2-yl)ethyl)-7-((2-(methylamino)-1H-imidazol-1-yl)methyl)-3,4-dihydroisoquinolin-1(2H)-one], for which the AC50 (in assay [1]; with MV4-11 cells) was 10 to 1000 nM each time. The IC50 on WDR5 was 10 to 1000 nM.
As to `CCOc1cc(CN2CCc3c(cc(Cn4ccnc4NC)cc3C3CC3)C2=O)nn1C` [Example 87, 5-cyclopropyl-2-((5-ethoxy-1-methyl-1H-pyrazol-3-yl)methyl)-7-((2-(methylamino)-1H-imidazol-1-yl)methyl)-3,4-dihydroisoquinolin-1(2H)-one], the AC50 (in assay [1]; in the assay with MV4-11 cells) was 10 to 1000 nM in each case. Further, the IC50 at WDR5 lay in the range of 10 to 1000 nM.
